Results taken from the NIST ThermoML archive (doi:10.1021/je400157s).

Tests used:
[1] = Liquid; for mass density: 101.33 kPa, Vibrating tube method; for speed of sound: Pulse-echo method
[2] = molar heat capacity at constant pressure; details: 101.33 kPa, Liquid, Small sample (50 mg) DSC

CCCCCCCC(=O)OCC [ethyl octanoate]
Details | mass density, [1] [kg/m3] | molar heat capacity at constant pressure, [2] [J/K/mol]
278.15 K | 879.5 | –
283.15 K | 875.22 | –
285.01 K | – | 338
288.15 K | 870.94 | –
288.16 K | – | 339.38
293.15 K | 866.65 | 341.09
298.15 K | 862.36 | 343.12
303.15 K | 858.07 | –
303.16 K | – | 345.31
308.15 K | 853.76 | 347.48
313.15 K | 849.46 | 349.66
318.15 K | 845.14 | –
318.16 K | – | 351.96
323.15 K | 840.81 | 354.35
328.14 K | – | 356.9
328.15 K | 836.47 | –
333.15 K | 832.12 | 358.95
338.15 K | 827.76 | 361.55
343.15 K | 823.39 | –
343.16 K | – | 363.7
343.78 K | – | 364.29
348.15 K | 819 | –
353.15 K | 814.59 | –
358.15 K | 810.17 | –

[1]
Details | speed of sound [m/s]
292.9 K, 101320 kPa | 1668.8
292.91 K, 45590 kPa | 1484.7
292.91 K, 60790 kPa | 1539.2
292.91 K, 75990 kPa | 1590
292.91 K, 91180 kPa | 1638.3
292.92 K, 15200 kPa | 1359
292.92 K, 30390 kPa | 1426.7
292.94 K, 100 kPa | 1281.8
298.2 K, 45590 kPa | 1468.7
298.2 K, 60790 kPa | 1523.7
298.2 K, 75990 kPa | 1575
298.2 K, 91180 kPa | 1623.9
298.21 K, 30390 kPa | 1407.9
298.21 K, 101320 kPa | 1654.1
298.22 K, 100 kPa | 1261.5
298.22 K, 15200 kPa | 1340.8
303.13 K, 45590 kPa | 1453.6
303.13 K, 60790 kPa | 1509.1
303.13 K, 75990 kPa | 1561.4
303.13 K, 91180 kPa | 1610.1
303.13 K, 101320 kPa | 1639.9
303.14 K, 15200 kPa | 1324.2
303.14 K, 30390 kPa | 1391.8
303.2 K, 100 kPa | 1242.5
308.11 K, 15200 kPa | 1307.5
308.11 K, 30390 kPa | 1376.3
308.11 K, 45590 kPa | 1438.7
308.11 K, 60790 kPa | 1494.9
308.11 K, 75990 kPa | 1547.2
308.11 K, 91180 kPa | 1596.5
308.11 K, 101320 kPa | 1627.7
308.17 K, 100 kPa | 1223.6
313.09 K, 60800 kPa | 1480.5
313.09 K, 91180 kPa | 1582.8
313.1 K, 75990 kPa | 1533
313.1 K, 101320 kPa | 1614.8
313.11 K, 15200 kPa | 1290.2
313.11 K, 30390 kPa | 1360.2
313.11 K, 45590 kPa | 1423.1
313.15 K, 100 kPa | 1205
318.24 K, 30390 kPa | 1343.9
318.26 K, 15200 kPa | 1273
318.26 K, 45590 kPa | 1407.4
318.26 K, 60800 kPa | 1466
318.26 K, 75990 kPa | 1519.4
318.26 K, 91180 kPa | 1569.6
318.27 K, 101320 kPa | 1601.6
318.32 K, 100 kPa | 1185.7
